Assay results published in patent US12570642B2, “GLP-IR modulating compounds” (Gilead Sciences, Inc., priority 2021, dated 2026).

The compounds below were run against GLP-1R (Homo sapiens, UniProt P43220) (assay: GLP-1R Activation - cAMP Assay). Details: cAMP increase in CHO cells stably expressing GLP-1R; each compound run on one of the two cAMP assays (Assay 1 or Assay 2, not specified).
Assay type: cell-based
Outline: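 cAMP rise read by HTRF after 30 min agonist exposure (10-point titration, 37 °C) in HBSS/20 mM Hepes/0.1% BSA, following 1 h pre-incubation. Cells: stable GLP-1R CHO line, 1,000/well, seeded overnight. Sigmoidal fit of response vs log concentration gives EC50.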

Sequence of GLP-1R (P43220 24-463): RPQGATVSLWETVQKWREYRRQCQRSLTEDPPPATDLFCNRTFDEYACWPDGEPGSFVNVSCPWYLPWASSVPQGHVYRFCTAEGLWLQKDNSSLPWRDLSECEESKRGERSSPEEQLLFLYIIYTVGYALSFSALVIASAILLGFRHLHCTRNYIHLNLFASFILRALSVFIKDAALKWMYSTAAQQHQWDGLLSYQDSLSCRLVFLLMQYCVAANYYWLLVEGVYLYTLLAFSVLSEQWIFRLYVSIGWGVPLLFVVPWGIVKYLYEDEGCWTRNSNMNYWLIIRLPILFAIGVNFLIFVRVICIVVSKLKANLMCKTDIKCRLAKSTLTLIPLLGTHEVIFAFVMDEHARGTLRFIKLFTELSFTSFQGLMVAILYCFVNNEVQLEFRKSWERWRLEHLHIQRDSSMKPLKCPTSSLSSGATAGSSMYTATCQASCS

Compared with `CC1(C)COC[C@H]1n1c(Cc2cc(F)c(-c3cccc(OCc4ccc(-n5ccnn5)cc4)n3)cc2F)nc2ccc(C(=O)O)cc21` [Example 183, (S)-2-(4-(6-((4-(1H-1,2,3-triazol-1-yl)benzyl)oxy)pyridin-2-yl)-2,5-difluorobenzyl)-1-(4,4-dimethyltetrahydrofuran-3-yl)-1H-benzo[d]imidazole-6-carboxylic Acid], `CC1(C)COC[C@H]1n1c(Cc2cc(F)c(-c3cccc(OCc4ccc(-n5ccnn5)cc4)n3)cc2F)nc2c(F)cc(C(=O)O)cc21` [Example 186, (S)-2-(4-(6-((4-(1H-1,2,3-triazol-1-yl)benzyl)oxy)pyridin-2-yl)-2,5-difluorobenzyl)-1-(4,4-dimethyltetrahydrofuran-3-yl)-4-fluoro-1H-benzo[d]imidazole-6-carboxylic acid] is 7.2-fold lower in EC50: 0.129 nM for the first, 0.018 nM for the second. The second is the more potent here.

First: N#Cc1ccc(COc2cccc(-c3cc(F)c(Cc4nc5ccc(C(=O)O)cc5n4[C@@H]4COC[C@@H]4COC(F)F)cc3F)n2)c(F)c1 [Example 185, 2-(4-(6-((4-cyano-2-fluorobenzyl)oxy)pyridin-2-yl)-2,5-difluorobenzyl)-1-((3S,4R)-4-((difluoromethoxy)methyl)tetrahydrofuran-3-yl)-1H-benzo[d]imidazole-6-carboxylic Acid]
Second: N#Cc1ccc(COc2cccc(-c3cc(F)c(Cc4nc5ccc(C(=O)O)cc5n4[C@H]4COC[C@@H]4C4CC4)cc3F)n2)c(F)c1 [Example 189, 2-(4-(6-((4-cyano-2-fluorobenzyl)oxy)pyridin-2-yl)-2,5-difluorobenzyl)-1-((3R,4R)-4-cyclopropyltetrahydrofuran-3-yl)-1H-benzo[d]imidazole-6-carboxylic acid]
The EC50 of the first is 4-fold higher: 0.594 nM for the first, 0.149 nM for the second.

Compared with `N#Cc1ccc(COc2cccc(-c3cc(F)c(Cc4nc5ccc(C(=O)O)cc5n4[C@@H]4C[C@@H]5CC[C@H]4O5)cc3F)n2)c(F)c1` [Example 187, 1-((1R,2R,4S)-7-oxabicyclo[2.2.1]heptan-2-yl)-2-(4-(6-((4-cyano-2-fluorobenzyl)oxy)pyridin-2-yl)-2,5-difluorobenzyl)-1H-benzo[d]imidazole-6-carboxylic acid], `N#Cc1ccc(COc2cccc(-c3cc(F)c(Cc4nc5ccc(C(=O)O)cc5n4[C@@H]4COC[C@H]4C4CC4)cc3F)n2)c(F)c1` [Example 190, 2-(4-(6-((4-cyano-2-fluorobenzyl)oxy)pyridin-2-yl)-2,5-difluorobenzyl)-1-((3S,4S)-4-cyclopropyltetrahydrofuran-3-yl)-1H-benzo[d]imidazole-6-carboxylic acid] is 6.4-fold lower in EC50: 0.391 nM for the first, 0.061 nM for the second.

First: CC1(C)COC[C@H]1n1c(Cc2cc(F)c(-c3ccc(F)c(OCc4ccc(C#N)cc4)n3)cc2F)nc2ccc(C(=O)O)cc21 [Example 188, (S)-2-(4-(6-((4-cyanobenzyl)oxy)-5-fluoropyridin-2-yl)-2,5-difluorobenzyl)-1-(4,4-dimethyltetrahydrofuran-3-yl)-1H-benzo[d]imidazole-6-carboxylic acid]
Second: CC1(C)COC[C@H]1n1c(Cc2cc(F)c(-c3ccnc(OCc4ccc(C#N)cc4)n3)cc2F)nc2ccc(C(=O)O)cc21 [Example 193, (S)-2-(4-(2-((4-cyanobenzyl)oxy)pyrimidin-4-yl)-2,5-difluorobenzyl)-1-(4,4-dimethyltetrahydrofuran-3-yl)-1H-benzo[d]imidazole-6-carboxylic acid]
The EC50 of the first is 4.1-fold lower: 0.032 nM for the first, 0.132 nM for the second.

`N#Cc1ccc(COc2cccc(-c3cc(F)c(Cc4nc5ccc(C(=O)O)cc5n4[C@@H]4COC[C@@H]4C4CC4)cc3F)n2)c(F)c1` [Example 191, 2-(4-(6-((4-cyano-2-fluorobenzyl)oxy)pyridin-2-yl)-2,5-difluorobenzyl)-1-((3S,4R)-4-cyclopropyltetrahydrofuran-3-yl)-1H-benzo[d]imidazole-6-carboxylic acid] and `N#Cc1ccc(COc2cccc(-c3cc(F)c(Cc4nc5ccc(C(=O)O)cc5n4[C@H]4COC[C@H]4C4CC4)cc3F)n2)c(F)c1` [Example 192, 2-(4-(6-((4-cyano-2-fluorobenzyl)oxy)pyridin-2-yl)-2,5-difluorobenzyl)-1-((3R,4S)-4-cyclopropyltetrahydrofuran-3-yl)-1H-benzo[d]imidazole-6-carboxylic acid] are within 1.5-fold of each other in EC50: 0.353 nM for the first, 0.444 nM for the second.

Compared with `CC1(C)COC[C@H]1n1c(Cc2cc(F)c(-c3ccnc(OCc4ccc(C#N)cc4)n3)cc2F)nc2c(F)cc(C(=O)O)cc21` [Example 194, (S)-2-(4-(2-((4-cyanobenzyl)oxy)pyrimidin-4-yl)-2,5-difluorobenzyl)-1-(4,4-dimethyltetrahydrofuran-3-yl)-4-fluoro-1H-benzo[d]imidazole-6-carboxylic acid], `CC1(C)COC[C@H]1n1c(Cc2cc(F)c(-c3ccnc(OCc4ccc(C#N)cc4F)n3)cc2F)nc2c(F)cc(C(=O)O)cc21` [Example 205, (S)-2-(4-(2-((4-cyano-2-fluorobenzyl)oxy)pyrimidin-4-yl)-2,5-difluorobenzyl)-1-(4,4-dimethyltetrahydrofuran-3-yl)-4-fluoro-1H-benzo[d]imidazole-6-carboxylic acid] is 2.7-fold lower in EC50: 0.265 nM for the first, 0.097 nM for the second. The second is the more potent here.

`CC(F)(F)c1ccc(COc2cccc(-c3cc(F)c(Cc4nc5ccc(C(=O)O)cc5n4[C@@H]4COCC4(C)C)cc3F)n2)nc1` [Example 195, (S)-2-(4-(6-((5-(1,1-difluoroethyl)pyridin-2-yl)methoxy)pyridin-2-yl)-2,5-difluorobenzyl)-1-(4,4-dimethyltetrahydrofuran-3-yl)-1H-benzo[d]imidazole-6-carboxylic acid] and `CC1(C)COC[C@H]1n1c(Cc2cc(F)c(-c3ccnc(OCc4ccc(C#N)cc4F)n3)cc2F)nc2ccc(C(=O)O)cc21` [Example 198, (S)-2-(4-(2-((4-cyano-2-fluorobenzyl)oxy)pyrimidin-4-yl)-2,5-difluorobenzyl)-1-(4,4-dimethyltetrahydrofuran-3-yl)-1H-benzo[d]imidazole-6-carboxylic acid] are within 1.5-fold of each other in EC50: 0.539 nM for the first, 0.508 nM for the second.

`CC1(C)COC[C@H]1n1c(Cc2c(F)cc(-c3ccnc(OCc4ccc(Cl)cc4F)n3)c(F)c2F)nc2c(F)cc(C(=O)O)cc21` [Example 196, (S)-2-(4-(2-((4-chloro-2-fluorobenzyl)oxy)pyrimidin-4-yl)-2,3,6-trifluorobenzyl)-1-(4,4-dimethyltetrahydrofuran-3-yl)-4-fluoro-1H-benzo[d]imidazole-6-carboxylic acid] and `CC1(C)COCC1n1c(Cc2cc(F)c(-c3ccnc(OCc4ccc(C(F)(F)F)cc4F)n3)cc2F)nc2c(F)cc(C(=O)O)cc21` (stereo not drawn) [Example 200, 2-(2,5-difluoro-4-(2-((2-fluoro-4-(trifluoromethyl)benzyl)oxy)pyrimidin-4-yl)benzyl)-1-(4,4-dimethyltetrahydrofuran-3-yl)-4-fluoro-1H-benzo[d]imidazole-6-carboxylic acid] are the same in EC50: 0.508 nM for the first, 0.508 nM for the second.

First: CC[C@@H]1OCC[C@H]1n1c(Cc2cc(F)c(-c3cccc(OCc4ccc(C#N)cc4F)n3)cc2F)nc2ccc(C(=O)O)cc21 [Example 197, 2-(4-(6-((4-cyano-2-fluorobenzyl)oxy)pyridin-2-yl)-2,5-difluorobenzyl)-1-((2S,3R)-2-ethyltetrahydrofuran-3-yl)-1H-benzo[d]imidazole-6-carboxylic acid]
Second: N#Cc1ccc(COc2cccc(-c3cc(F)c(Cc4nc5ccc(C(=O)O)cc5n4C4COC5(CC5)C4)cc3F)n2)c(F)c1 (stereo not drawn) [Example 203, 2-(4-(6-((4-cyano-2-fluorobenzyl)oxy)pyridin-2-yl)-2,5-difluorobenzyl)-1-(4-oxaspiro[2.4]heptan-6-yl)-1H-benzo[d]imidazole-6-carboxylic acid]
The EC50 of the first is 5.8-fold lower: 6.62 nM for the first, 38.3 nM for the second.

Compared with `CC1(C)CC(n2c(Cc3cc(F)c(-c4cccc(OCc5ccc(C#N)cc5F)n4)cc3F)nc3ccc(C(=O)O)cc32)C(C)(C)O1` (stereo not drawn) [Example 199, 2-(4-(6-((4-cyano-2-fluorobenzyl)oxy)pyridin-2-yl)-2,5-difluorobenzyl)-1-(2,2,5,5-tetramethyltetrahydrofuran-3-yl)-1H-benzo[d]imidazole-6-carboxylic acid], `N#Cc1ccc(COc2cccc(-c3cc(F)c(Cc4nc5ccc(C(=O)O)cc5n4C4COC5(COC5)C4)cc3F)n2)c(F)c1` (stereo not drawn) [Example 202, 2-(4-(6-((4-cyano-2-fluorobenzyl)oxy)pyridin-2-yl)-2,5-difluorobenzyl)-1-(2,5-dioxaspiro[3.4]octan-7-yl)-1H-benzo[d]imidazole-6-carboxylic acid] is 23-fold lower in EC50: 90.9 nM for the first, 4.01 nM for the second.

First: CC1(C)COC[C@H]1n1c(Cc2cc(F)c(-c3cccc(OCc4ccc(Cl)cc4F)n3)cc2F)nc2c(F)cc(C(=O)O)cc21 [Example 201, (S)-2-(4-(6-((4-chloro-2-fluorobenzyl)oxy)pyridin-2-yl)-2,5-difluorobenzyl)-1-(4,4-dimethyltetrahydrofuran-3-yl)-4-fluoro-1H-benzo[d]imidazole-6-carboxylic acid]
Second: CC1(C)COC[C@H]1n1c(Cc2cc(F)c(-c3cccc(OCc4cc(F)c(C#N)cc4F)n3)cc2F)nc2c(F)cc(C(=O)O)cc21 [Example 204, (S)-2-(4-(6-((4-cyano-2,5-difluorobenzyl)oxy)pyridin-2-yl)-2,5-difluorobenzyl)-1-(4,4-dimethyltetrahydrofuran-3-yl)-4-fluoro-1H-benzo[d]imidazole-6-carboxylic acid]
The EC50 of the first is 3.2-fold lower: 0.028 nM for the first, 0.09 nM for the second. The first is the more potent here.

`CC1(C)COC[C@H]1n1c(Cc2cc(F)c(-c3nccc(OCc4ccc(C#N)cc4F)n3)cc2F)nc2c(F)cc(C(=O)O)cc21` [Example 206, (S)-2-(4-(4-((4-cyano-2-fluorobenzyl)oxy)pyrimidin-2-yl)-2,5-difluorobenzyl)-1-(4,4-dimethyltetrahydrofuran-3-yl)-4-fluoro-1H-benzo[d]imidazole-6-carboxylic acid] and `Cc1cc(Cc2nc3c(F)cc(C(=O)O)cc3n2[C@@H]2COCC2(C)C)c(F)cc1-c1ccc(F)c(OCc2ccc(C#N)cc2F)n1` [Example 207, (S)-2-(4-(6-((4-cyano-2-fluorobenzyl)oxy)-5-fluoropyridin-2-yl)-2-fluoro-5-methylbenzyl)-1-(4,4-dimethyltetrahydrofuran-3-yl)-4-fluoro-1H-benzo[d]imidazole-6-carboxylic acid] are within 1.5-fold of each other in EC50: 0.191 nM for the first, 0.168 nM for the second.
